In brackets after ≈: the same amount, converted by molar mass. Like-named read-outs stand apart in the source and are kept apart here.
How the values were obtained:
APAE001 (ATCC27853) = test: MIC broth microdilution, APAE001; format: cell-based, P. aeruginosa; conditions: Pseudomonas aeruginosa, ATCC27853, read-out: MIC APAE001, APAE001 (ATCC27853)
Method: (§1) Bacterial isolates were cultivated from −70° C. frozen stocks by overnight passages at 35° C. in ambient air on Mueller-Hinton agar (Beckton Dickinson, Franklin Lakes, N.J.). Clinical isolates tested were obtained from various geographically diverse hospitals in the US and abroad (Focus Diagnostics, Herndon, Va. and JMI, North Liberty, Iowa). Quality control strains were from the American Type Culture Collection (ATCC; Rockville, Md.). Additional primary panel strains were generated using standard molecular biology techniques.
(§2) Minimum Inhibitory Concentrations (MICs) were determined by the broth microdilution method in accordance with the Clinical and Laboratory Standards Institute (CLSI) guidelines. In brief, organism suspensions were adjusted to a 0.5 McFarland standard to yield a final inoculum between 3×10^5 and 7×10^5 colony-forming units (CFU)/mL. Drug dilutions and inocula were made in sterile, cation adjusted Mueller-Hinton Broth (Beckton Dickinson). An inoculum volume of 100 μL was added to wells containing 100 μL of broth with 2-fold serial dilutions of drug. All inoculated microdilution trays were incubated in ambient air at 35° C. for 18-24 hours. […] Performance of the assay was monitored by the use of laboratory quality-control strains and levofloxacin, a compound with a defined MIC spectrum, in accordance with CLSI guidelines.
(§3) *AECO001 is ATCC25922, AECO063 is ATCC25922 bearing an acrAB mutation, APAE001 is ATCC27853, APAE006 is a strain of P. aeruginosa in which all efflux pumps are inactivated, APAE006+PMBN indicates MICs with the indicated strain in the presence of 8 micrograms per milliliter of polymyxin B nonapeptide, AABA1060 is a clinical isolate of Acinetobacter baumannii, ASAU001 is a laboratory strain of S. aureus (ATCC29213).

[1] = test system: APAE006 (strain of P. aeruginosa in which all efflux pumps are inactivated); test: microbe, parasite or virus in culture; format: cell-based; conditions: Pseudomonas aeruginosa, read-out: MIC APAE006, APAE006, all efflux pumps inactivated
Method: as §1, §2, §3

[2] = test system: ASAU001 (laboratory strain of S. aureus, ATCC29213); test: MIC broth microdilution, ASAU001; format: cell-based; conditions: Staphylococcus aureus, ATCC29213, read-out: MIC ASAU001
Method: as §1, §2, §3

[3] = test system: AECO063 (ATCC25922 bearing an acrAB mutation); test: microbe, parasite or virus in culture; format: cell-based, E. coli; conditions: Escherichia coli, ATCC25922, read-out: MIC AECO063
Method: as §1, §2, §3

AECO001 (ATCC25922) = test: MIC broth microdilution, AECO001; format: cell-based, E. coli; conditions: Escherichia coli
Method: as §1, §2, §3

[4] = test system: APAE006 in the presence of 8 micrograms per milliliter of polymyxin B nonapeptide; format: cell-based, P. aeruginosa; conditions: APAE006 with 8 micrograms per milliliter polymyxin B nonapeptide
Method: as §1, §2, §3

[5] = test system: AABA1060 (clinical isolate of Acinetobacter baumannii); test: MIC broth microdilution, AABA1060; format: cell-based; conditions: Acinetobacter baumannii, read-out: MIC AABA1060
Method: as §1, §2, §3

[6] = ATCC25922, read-out: MIC AECO001
[7] = ATCC25922, read-out: MIC AECO001 HSA AGP

## CC(C)(N)[C@H](NC(=O)c1ccc(C#CC#Cc2ccc(C(F)(F)F)cc2)cc1)C(=O)NO [Example 82-26]
APAE001 (ATCC27853)
  MIC: 2 to 16 µg/mL (≈ 4.51 to 36.1 µM)
[1]
  MIC: 2 to 16 µg/mL (≈ 4.51 to 36.1 µM)
[2]
  MIC: 2 to 16 µg/mL (≈ 4.51 to 36.1 µM)
[3]
  MIC: < 2 µg/mL
AECO001 (ATCC25922); [6]
  MIC: < 2 µg/mL
AECO001 (ATCC25922); [7]
  MIC: 16 to 64 µg/mL (≈ 36.1 to 144 µM)
[4]
  MIC APAE006 + PMBN: A (MIC's of 2.0 μg/mL or less = A)
[5]
  MIC: 2 to 16 µg/mL (≈ 4.51 to 36.1 µM)

## CC(C)(N)[C@H](NC(=O)c1ccc(C#CC#Cc2cccc(F)c2)cc1)C(=O)NO [Example 82-27]
APAE001 (ATCC27853)
  MIC: 2 to 16 µg/mL (≈ 5.08 to 40.7 µM)
[1]
  MIC: < 2 µg/mL
[2]
  MIC: 16 to 64 µg/mL (≈ 40.7 to 163 µM)
[3]
  MIC: < 2 µg/mL
AECO001 (ATCC25922); [6]
  MIC: < 2 µg/mL
AECO001 (ATCC25922); [7]
  MIC: 2 to 16 µg/mL (≈ 5.08 to 40.7 µM)
[4]
  MIC APAE006 + PMBN: A (MIC's of 2.0 μg/mL or less = A)
[5]
  MIC: 2 to 16 µg/mL (≈ 5.08 to 40.7 µM)

## CC(C)(N)[C@H](NC(=O)c1ccc(C#CC#Cc2ccc(F)cc2)cc1)C(=O)NO [Example 82-28]
APAE001 (ATCC27853)
  MIC: 2 to 16 µg/mL (≈ 5.08 to 40.7 µM)
[1]
  MIC: < 2 µg/mL
[2]
  MIC: 2 to 16 µg/mL (≈ 5.08 to 40.7 µM)
[3]
  MIC: < 2 µg/mL
AECO001 (ATCC25922); [6]
  MIC: < 2 µg/mL
AECO001 (ATCC25922); [7]
  MIC: 2 to 16 µg/mL (≈ 5.08 to 40.7 µM)
[4]
  MIC APAE006 + PMBN: A (MIC's of 2.0 μg/mL or less = A)
[5]
  MIC: < 2 µg/mL

## CC(C)(N)[C@H](NC(=O)c1ccc(C#CC#Cc2ccc(O)cc2)cc1)C(=O)NO [Example 83-1, N—((S)-2-Amino-1-hydroxycarbamoyl-2-methyl-propyl)-4-[4-(4-hydroxy-phenyl)-buta-1,3-diynyl]-benzamide]
APAE001 (ATCC27853)
  MIC: < 2 µg/mL
[1]
  MIC: < 2 µg/mL
[2]
  MIC: 16 to 64 µg/mL (≈ 40.9 to 164 µM)
[3]
  MIC: < 2 µg/mL
AECO001 (ATCC25922); [6]
  MIC: < 2 µg/mL
AECO001 (ATCC25922); [7]
  MIC: 2 to 16 µg/mL (≈ 5.11 to 40.9 µM)
[4]
  MIC APAE006 + PMBN: A (MIC's of 2.0 μg/mL or less = A)
[5]
  MIC: < 2 µg/mL

## C[C@@H](N)[C@H](NC(=O)c1ccc(C#CC#Cc2ccc(O)cc2)cc1)C(=O)NO [Example 83-2]
APAE001 (ATCC27853)
  MIC: < 2 µg/mL
[1]
  MIC: < 2 µg/mL
[2]
  MIC: 16 to 64 µg/mL (≈ 42.4 to 170 µM)
[3]
  MIC: < 2 µg/mL
AECO001 (ATCC25922); [6]
  MIC: < 2 µg/mL
AECO001 (ATCC25922); [7]
  MIC: 16 to 64 µg/mL (≈ 42.4 to 170 µM)
[4]
  MIC APAE006 + PMBN: A (MIC's of 2.0 μg/mL or less = A)
[5]
  MIC: 2 to 16 µg/mL (≈ 5.3 to 42.4 µM)

## C[C@@H](N)[C@H](NC(=O)c1ccc(C#CC#Cc2ccc(OC3CC3)cc2)cc1)C(=O)NO [Example 84-1, N-((1S,2R)-2-Amino-1-hydroxycarbamoyl-propyl)-4-[4-(4-cyclopropoxy-phenyl)-buta-1,3-diynyl]-benzamide]
APAE001 (ATCC27853)
  MIC: 16 to 64 µg/mL (≈ 38.3 to 153 µM)
[1]
  MIC: 2 to 16 µg/mL (≈ 4.79 to 38.3 µM)
[2]
  MIC: 16 to 64 µg/mL (≈ 38.3 to 153 µM)
[3]
  MIC: < 2 µg/mL
AECO001 (ATCC25922); [6]
  MIC: < 2 µg/mL
AECO001 (ATCC25922); [7]
  MIC: 2 to 16 µg/mL (≈ 4.79 to 38.3 µM)
[4]
  MIC APAE006 + PMBN: A (MIC's of 2.0 μg/mL or less = A)
[5]
  MIC: 16 to 64 µg/mL (≈ 38.3 to 153 µM)

## C[C@@H](N)[C@H](NC(=O)c1ccc(C#CC#Cc2ccc(CNCC(F)F)cc2)cc1)C(=O)NO [Example 86-1, N-((1S,2R)-2-Amino-1-hydroxycarbamoyl-propyl)-4-(4-{4-[(2,2-difluoro-ethylamino)-methyl]-phenyl}-buta-1,3-diynyl)-benzamide]
APAE001 (ATCC27853)
  MIC: < 2 µg/mL
[1]
  MIC: < 2 µg/mL
[2]
  MIC: 16 to 64 µg/mL (≈ 35.2 to 141 µM)
[3]
  MIC: < 2 µg/mL
AECO001 (ATCC25922); [6]
  MIC: < 2 µg/mL
AECO001 (ATCC25922); [7]
  MIC: 2 to 16 µg/mL (≈ 4.4 to 35.2 µM)
[4]
  MIC APAE006 + PMBN: A (MIC's of 2.0 μg/mL or less = A)
[5]
  MIC: 2 to 16 µg/mL (≈ 4.4 to 35.2 µM)

## CC(C)(O)[C@H](NC(=O)c1ccc(C#CC#Cc2ccc(CN3CCOCC3)cc2)cc1)C(=O)NO [Example 86-4]
APAE001 (ATCC27853)
  MIC: 2 to 16 µg/mL (≈ 4.21 to 33.6 µM)
[1]
  MIC: < 2 µg/mL
[2]
  MIC: 16 to 64 µg/mL (≈ 33.6 to 135 µM)
[3]
  MIC: < 2 µg/mL
AECO001 (ATCC25922); [6]
  MIC: < 2 µg/mL
AECO001 (ATCC25922); [7]
  MIC: 2 to 16 µg/mL (≈ 4.21 to 33.6 µM)
[4]
  MIC APAE006 + PMBN: A (MIC's of 2.0 μg/mL or less = A)
[5]
  MIC: 2 to 16 µg/mL (≈ 4.21 to 33.6 µM)

## C[C@@H](N)[C@H](NC(=O)c1ccc(C#CC#Cc2ccc(CNCCF)cc2)cc1)C(=O)NO [Example 86-5]
APAE001 (ATCC27853)
  MIC: < 2 µg/mL
[1]
  MIC: < 2 µg/mL
[2]
  MIC: 16 to 64 µg/mL (≈ 36.7 to 147 µM)
[3]
  MIC: < 2 µg/mL
AECO001 (ATCC25922); [6]
  MIC: < 2 µg/mL
AECO001 (ATCC25922); [7]
  MIC: 16 to 64 µg/mL (≈ 36.7 to 147 µM)
[4]
  MIC APAE006 + PMBN: A (MIC's of 2.0 μg/mL or less = A)
[5]
  MIC: 2 to 16 µg/mL (≈ 4.58 to 36.7 µM)

## C[C@@H](N)[C@H](NC(=O)c1ccc(C#CC#Cc2ccc(CN3CCS(=O)(=O)CC3)cc2)cc1)C(=O)NO [Example 86-6]
APAE001 (ATCC27853)
  MIC: 2 to 16 µg/mL (≈ 3.93 to 31.5 µM)
[1]
  MIC: < 2 µg/mL
[2]
  MIC: 16 to 64 µg/mL (≈ 31.5 to 126 µM)
[3]
  MIC: < 2 µg/mL
AECO001 (ATCC25922); [6]
  MIC: < 2 µg/mL
AECO001 (ATCC25922); [7]
  MIC: 2 to 16 µg/mL (≈ 3.93 to 31.5 µM)
[4]
  MIC APAE006 + PMBN: A (MIC's of 2.0 μg/mL or less = A)
[5]
  MIC: 2 to 16 µg/mL (≈ 3.93 to 31.5 µM)

— patent publication US9617256B2 (priority 2007, dated 2017)
